Measurements as given in the C3SDB collision cross section collection.
“And” between values parts separate entries of the source, which are not always exact repeats. Identical values can stand only once.

How the values were obtained:
[1] = instrument: TW, calibrated with phosphatidylcholines (ESI+) and phosphatidylethanolamines (ESI-), doubly charged cardiolipins calibrated with poly-DL-…
[2] = instrument: DT, single field
[3] = instrument: DT, single field, calibrated with Agilent tune mix (Agilent)
[4] = instrument: DT, stepped-field

Structure (SMILES)	collision cross section (N2) ([2]; [M+NH4]+)	collision cross section (N2) ([3]; [M+NH4]+) [Å²]	collision cross section (N2) ([2]; [M+Na]+)	other results
CCCCCC/C=C\CCCCCCCC(=O)OC[C@H](COP(=O)(O)OCCNC(=O)CCCCCCCCCCCCCCC)OC(=O)CCCCCCCCCCCCC [AcylPE(46:1)]				collision cross section (N2) ([1]; [M-H]-): 310.12 Å²
CCCCCC/C=C\CCCCCCCC(=O)OC[C@H](COP(=O)(O)OCCNC(=O)CCCCCCCCCCCCCCC)OC(=O)CCCCCCCCCCCCCC [AcylPE(47:1)]				collision cross section (N2) ([1]; [M+Na]+): 321.4 Å²; collision cross section (N2) ([1]; [M-H]-): 313.42 Å²
CCCCCC/C=C\CCCCCCCC(=O)OC[C@H](COP(=O)(O)OCCNC(=O)CCCCCCCCCCCCCCC)OC(=O)CCCCCCCC1CC1CCCCCCCC (stereo partly specified) [AcylPE(51:2)]				collision cross section (N2) ([1]; [M-H]-): 325.65 Å²
CCCCCC/C=C\CCCCCCCC(=O)OC[C@H](COP(=O)(O)OCCNC(=O)CCCCCCCCCCCCCCC)OC(=O)CCCCCCC/C=C\CCCCCCCCCC [AcylPE(52:2)]				collision cross section (N2) ([1]; [M-H]-): 328.83 Å²
CCCCCC/C=C\CCCCCCCC(=O)OC[C@H](COP(=O)(O)OC[C@@H](O)COC(=O)CCCCCCCCCCCCCCC)OC(=O)CCCCCCCCCCCCC [AcylPG(46:1)]				collision cross section (N2) ([1]; [M-H]-): 310.71 Å²
CCCC/C=C\CCCCCCCC(=O)O[C@H](COC(=O)CCCCCCC/C=C\CCCCCC)COP(=O)(O)OC[C@@H](O)COC(=O)CCCCCCCCCCCCCCC [AcylPG(46:2)]				collision cross section (N2) ([1]; [M-H]-): 312.53 Å²
CCCCCC/C=C\CCCCCCCC(=O)OC[C@H](COP(=O)(O)OC[C@@H](O)COC(=O)CCCCCCCCCCCCCCC)OC(=O)CCCCCCC/C=C\CCCCCC [AcylPG(48:2)]				collision cross section (N2) ([1]; [M-H]-): 315.28 Å²
CCCCCC/C=C\CCCCCCCC(=O)OC[C@H](COP(=O)(O)OC[C@@H](O)COC(=O)CCCCCCCCCCCCCCC)OC(=O)CCCCCCCC1CC1CCCCCC (stereo partly specified) [AcylPG(49:2)]				collision cross section (N2) ([1]; [M-H]-): 318.87 Å²
CCCCCC/C=C\CCCCCCCC(=O)OC[C@H](COP(=O)(O)OC[C@@H](O)COC(=O)CCCCCCCCCCCCCCC)OC(=O)CCCCCCCC1CC1CCCCCCCC (stereo partly specified) [AcylPG(51:2)]				collision cross section (N2) ([1]; [M-H]-): 326.79 Å²
CCCCCC/C=C\CCCCCCCC(=O)OC[C@H](O)COP(=O)(O)OC[C@@H](COC(=O)CCCCCCC/C=C\CCCCCC)OC(=O)CCCCCCCC1CC1CCCCCCCC (stereo partly specified) [AcylPG(51:3)]				collision cross section (N2) ([1]; [M-H]-): 325 Å²
CCCCCC/C=C\CCCCCCCC(=O)OC[C@H](COP(=O)(O)OC[C@@H](O)COC(=O)CCCCCCCCCCCCCCC)OC(=O)CCCCCCCC1CC1CCCCCCCCCC (stereo partly specified) [AcylPG(53:2)]				collision cross section (N2) ([1]; [M-H]-): 333.78 Å²
CCCCCC/C=C\CCCCCCCC(=O)OC(COC(=O)CCCCCCCCCCCCCCC)COP(=O)(O)OCC(O)COP(=O)(O)OCC(COC(=O)CCCCCCCCCCCCCCC)OC(=O)CCCCCCC/C=C\CCCCCC (stereo unspecified) [CL(64:2)]				collision cross section (N2) ([1]; [M+2K]2+): 422.9 Å²; collision cross section (N2) ([1]; [M-2H]2-): 397 Å²
CCCCCC/C=C\CCCCCCCC(=O)OC(COC(=O)CCCCCCCCCCCCCCC)COP(=O)(O)OCC(O)COP(=O)(O)OCC(COC(=O)CCCCCCCCCCCCCCC)OC(=O)CCCCCCCC1CC1CCCCCC (stereo unspecified) [CL(65:2)]				collision cross section (N2) ([1]; [M+2K]2+): 425.4 Å²; collision cross section (N2) ([1]; [M-2H]2-): 399.77 Å²
CCCCCC/C=C\CCCCCCCC(=O)OC[C@H](CO)OC(=O)CCCCCCCCCCCCCCCCC [DG(34:1)]	260.44 Å² and 262.5 Å²	261.1		
CCCCC/C=C\CCCCCCCC(=O)O[C@H](COC(=O)CCCCCCC/C=C\CCCCCC)COP(=O)([O-])OCC[N+](C)(C)C [PC(31:2)]				collision cross section (N2) ([2]; [M+H]+): 272.28 Å²; collision cross section (N2) ([4]; [M+K]+): 283.6 Å²
CCCCC/C=C\C/C=C\CCCCCCCCCC(=O)O[C@H](COC(=O)CCCCCCCCCCCC)COP(=O)([O-])OCC[N+](C)(C)C [PC(33:2)]				collision cross section (N2) ([2]; [M+H]+): 279.23 Å²; collision cross section (N2) ([3]; [M+H]+): 279.8 Å²; collision cross section (N2) ([4]; [M+K]+): 291.5 Å²
CCCCCCCCCCCCC=CC[C@@H](O)[C@H](COP(=O)([O-])OCC[N+](C)(C)C)NC(=O)CCCCCCCCCCCCCCCCCCCCC [SM(40:1)]				collision cross section (N2) ([2]; [M+H]+): 299.29 Å²; collision cross section (N2) ([3]; [M+HCOO]-): 297.5 Å²; collision cross section (N2) ([3]; [M+H]+): 300.7 Å²; collision cross section (N2) ([3]; [M+Na]+): 300.5 Å²; collision cross section (N2) ([4]; [M+Na]+): 303.9 Å²
CCCCCCCCCCCCC=CC[C@@H](O)[C@H](COP(=O)([O-])OCC[N+](C)(C)C)NC(=O)CCCCCCCCCCCCCCCCCCCCCCCC [SM(43:1)]				collision cross section (N2) ([2]; [M+H]+): 308.58 Å²; collision cross section (N2) ([4]; [M+Na]+): 312.5 Å²
CCCCCCCCCCCCCCCC(=O)OC[C@@H](COC(=O)CCCCCCCCCCC)OC(=O)CCCCCCCCCCC [TG(40:0)]		285	282.67 Å² and 283.77 Å²	

Structure (SMILES)	collision cross section (N2) ([2]; [M+NH4]+)	collision cross section (N2) ([3]; [M+NH4]+) [Å²]	collision cross section (N2) ([2]; [M+Na]+)	other results
CCCCC/C=C\C/C=C\CCCCCCCCCC(=O)OC[C@@H](COC(=O)CCCCCCCCCCC)OC(=O)CCCCCCCCCCC [TG(44:2)]	294.01 Å² and 295.78 Å² and 296.41 Å²	292.9	292.91 Å² and 295.34 Å²	
CCCCCCCC/C=C\CCCCCCCC(=O)OC[C@@H](COC(=O)CCCCCCCCCCC)OC(=O)CCCCCCC/C=C\CCCCCCCC [TG(48:2)]	307.53 Å² and 309.7 Å² and 313.52 Å²	308.3	306.66 Å² and 308.69 Å²	
CCCCCCCCC/C=C\CCCCCCCC(=O)OC[C@@H](COC(=O)CCCCCCCCCCC)OC(=O)CCCCCCC/C=C\CCCCCCCCC [TG(50:2)]		315.8	313.04 Å² and 315.16 Å²	
CCCCC/C=C\C/C=C\C/C=C\CCCCCCCCC(=O)OC[C@@H](COC(=O)CCCCCCCCCCCCC)OC(=O)CCCCCCCCCCCCC [TG(50:3)]	311.73 Å² and 314.12 Å²	313	310.81 Å² and 313.16 Å²	
CCCCCCCCC/C=C\CCCCCCCC(=O)OC[C@@H](COC(=O)CCCCCCCCCCCC)OC(=O)CCCCCCC/C=C\CCCCCCCCC [TG(51:2)]		317.2	315.77 Å² and 317.68 Å²	
CCCCC/C=C\CCCCCCCC(=O)OC[C@H](COC(=O)CCCCCCC/C=C\CCCCCCCC)OC(=O)CCCCCCC/C=C\CCCCCCCC [TG(51:3)]	314.4 Å² and 316.33 Å² and 320.05 Å²	314.6	313.29 Å² and 315.37 Å²	
CCCC/C=C\C/C=C\CCCCCCCC(=O)O[C@@H](COC(=O)CCCCCCC/C=C\C/C=C\CCCCC)COC(=O)CCCCCCCCCCCCCCC [TG(51:4)]	312.43 Å² and 314.2 Å² and 317.35 Å²	312.1	313.17 Å²	
CCCCCCC/C=C\CCCCCCCC(=O)O[C@H](COC(=O)CCCCCCCCCCCCCCCC)COC(=O)CCCCCCCCCCCCCCCCC [TG(52:1)]		323.6	320.83 Å² and 322.81 Å²	
CCCCC/C=C\C/C=C\C/C=C\CCCCC(=O)O[C@H](COC(=O)CCCCCCCCCCC)COC(=O)CCCCCCCCCCC/C=C\C/C=C\CCCCC [TG(52:5)]		314.7	312.33 Å² and 314.31 Å²	
CCCCC/C=C\C/C=C\CCCCCCCCCC(=O)O[C@H](COC(=O)CCCCCCCCCCCC)COC(=O)CCCCCCCCCCCCCCCCCCCCC [TG(55:2)]	332.67 Å² and 335.01 Å²	329.2		
CCCCCCC/C=C\CCCCCCCC(=O)OC[C@H](COC(=O)CCCCCCCCC/C=C\CCCCCCCCCC)OC(=O)CCCCCCC/C=C\CCCCCCC [TG(56:3)]		332.6	331.24 Å²	
CCCCC/C=C\C/C=C\CCCCCCCCCCCC(=O)OC[C@@H](COC(=O)CCCCCCCCCCC)OC(=O)CCCCCCCCCCC/C=C\C/C=C\CCCCC [TG(56:4)]	327.84 Å² and 330.13 Å² and 333.95 Å²	330.8	329.41 Å²	
CC/C=C\C/C=C\C/C=C\C/C=C\C/C=C\CCCC(=O)O[C@H](COC(=O)CCCCCCCCCCCCCCC)COC(=O)CCCCCCCCCCCCCCCCCCCCC [TG(58:5)]	334.35 Å²	334.6		
CC/C=C\C/C=C\C/C=C\CCCCCCCC(=O)O[C@H](COC(=O)CCCCCCC/C=C\C/C=C\CCCCC)COC(=O)CCCCCCCC/C=C\C/C=C\C/C=C\CCCCC [TG(58:8)]	330.76 Å² and 329.67 Å²			
CCCCCCCCC/C=C\CCCCCCCC(=O)OC[C@H](COC(=O)CCCCCCCCCCCCCCCCCCC)OC(=O)CCCCCCCCCCCCCCCCCCC [TG(59:1)]	347.61 Å²			
CCCC/C=C\C/C=C\CCCCCCCC(=O)OC[C@H](COC(=O)CCCCCCCCCCCCCCCCCCCCC)OC(=O)CCCCCCCCCCCCCCCCCCC [TG(59:2)]	343.68 Å² and 345.92 Å²			
CCCC/C=C\C/C=C\CCCCCCCC(=O)OC[C@H](COC(=O)CCCCCCCCCCCCCCCCCCCCC)OC(=O)CCCCCCCCC/C=C\CCCCCCCC [TG(59:3)]	342.22 Å² and 344.48 Å²	337.6		
CCCCC/C=C\C/C=C\C/C=C\CCCCCCCCC(=O)OC[C@@H](COC(=O)CCCCCCC/C=C\CCCCCCC)OC(=O)CCCCCCCCC/C=C\CCCCCCCC [TG(59:5)]	338.34 Å² and 341.2 Å²			
CC/C=C\C/C=C\C/C=C\C/C=C\C/C=C\C/C=C\CCC(=O)OC[C@@H](COC(=O)CCCCCCC/C=C\CCCCC)OC(=O)CCCCCCCCCCCCCCCCCCCCC [TG(59:7)]	337.86 Å²			
